Legend:
Format in all cases: cell-based, human
[1] = tested on: UCB-derived CD133+ cells; experiment: Ex vivo expansion of purified UCB-derived CD133+ cells with cytokines, CD133+ cell fraction by flow cytometry; conditions: for CD133+ cell population with cytostatic agent: colchicine 2.5 ng/ml, two weeks expansion; for Fold enrichment (CD133+): with vs without colchicine 2.5 ng/ml, two weeks
Protocol: Cells were obtained from human umbilical cord blood (UCB) after normal fall-term delivery. The cells were layered on a Ficoll-Hypaque gradient (1.077 g/ml Sigma), and centrifuged at 500 g for 30 minutes. The mononuclear cells in the interface layer were collected and washed three times in phosphate-buffered saline (PBS; Biological Industries) containing 0.5% Bovine serum albumin (BSA). To purify the CD133^+ cells, the mononuclear cell fraction was subjected to two cycles of immunomagnetic bead separation using a MiniMACS CD133 progenitor cell isolation kit (Miltenyi Biotec,), according to the manufacturer's recommendations.
(§1) Purified CD133^+ cells were cultured in 24-well culture plate at densities of 2-4×10^4 cells in alpha-MEM medium (Biological Industries) supplemented with 10% fetal calf serum (Biological Industries) and the following human recombinant cytokines (Pepro Tech, Inc., Rocky Hill, N.J., USA): Trombopoietin, interleukin-6, FLT-3 ligand and Stem Cell Factor, at final concentration of 50 ng/ml each as well as interleukin-3 and IL2 at 20 ng/ml, in the absence or presence of colchicine in a concentration scale as indicated. Cells were expanded at 37° C. in a humidified atmosphere of 5% CO2 in air.
(§2) Cultures were depopulated twice a week and a fresh medium in which growth factors and colchicine were added. At various time points, cells were counted after staining with trypan blue and harvested cells were used for enumeration of CD133^+ cells following immunophenotype analysis.
(§3) The cells were washed with a PBS solution containing 1% BSA and stained (at 4° C. for 30 min) with fluorescein isothiocyanate (FITC)- or phycoerythrin (PE)-conjugated antibodies that are specifically described in the next sections. Cells were washed in the abovementioned buffer and analyzed by flow cytometer (Becman coulter). Cells were passed at a rate of up to 1000 cells/second, using a 488-nm argon laser beam as the light source for excitation.
(§4) The percentage of CD133^+ cell fraction from total cells was determined by flow cytometry using. PE-anti-CD133^+ antibody (Miltenyi Biotec). Fold enrichment was calculated by dividing the CD133^+ cell percentage of culture growing with cytostatic agent by the CD133^+ cell percentage of culture growing without cytostatic agent. Since cultures were depopulated twice a week, the culture volume was calculated by multiplying the actual volume with the number of passages. Fold expansion was calculated by dividing the CD133^+ cell content of the culture by the initial number of cultured CD133^+ cells.

[2] = tested on: CD34+CD38- early stem cell sub-population of UCB derived CD133+ cells; experiment: Determination of CD34+CD38- early stem cell subset in cultured CD133+ cells by flow cytometry; conditions: for CD34+38- cell population with cytostatic agent: colchicine 2.5 ng/ml, one week expansion; for Fold enrichment (CD34+38-): with vs without colchicine 2.5 ng/ml, one week
Protocol: as §1, §3
The percentages of early stem cell subsets were determined from the purified fresh and/or cultured CD133^+ cell fraction. Cells were dually stained with PE anti-CD34 and FITC anti-CD38 (DAKO) for determination of CD34^+ CD38^− cells by flow cytometry analyses with PE anti-CD133^+ antibody (Miltenyi Biotec).

[3] = tested on: Fresh, enriched CD133+ stem cells; experiment: Cell counts and fold expansion of CD133+ stem cells after ex-vivo expansion; conditions: colchicine 2.5 ng/ml; for Fold expansion of CD133+ cells: 2 weeks vs T0
Protocol: as §1, §2, §4

[4] = Exp. 1, T0 0.4 × 10^3 CD133+ cells
[5] = Exp. 2, T0 0.2 × 10^3 CD133+ cells
[6] = Exp. 3, T0 0.4 × 10^3 CD133+ cells

COc1cc2c(c(OC)c1OC)-c1ccc(OC)c(=O)cc1[C@@H](NC(C)=O)CC2 [colchicine]
optimal concentration in which the highest CD133+ cells enrichment was achieved ([1]; 2 weeks expansion, three independent experiments, FIG. 3): 2.5 ng/mL | CD133+ cell population with cytostatic agent ([1]; Donor # 1 (first line)): 4% | Fold enrichment (CD133+) ([1]; Donor # 1 (first line)): 4 | CD133+ cell population with cytostatic agent ([1]; Donor # 1): 7% | Fold enrichment (CD133+) ([1]; Donor # 1): 7 | CD133+ cell population with cytostatic agent ([1]; Donor # 3): 15% | Fold enrichment (CD133+) ([1]; Donor # 3): 2.5 | CD133+ cell population with cytostatic agent ([1]; Mean ± SD of three donors): 8.7 ± 5.7% | Fold enrichment (CD133+) ([1]; Mean ± SD of three donors): 4.5 ± 2.3 | enrichment of UCB-derived CD133+ cell-fraction (in words) ([1]; concentration scale, 2 weeks expansion, FIG. 3): dose-dependent enrichment | percentage of CD34+CD38- sub-population, treated vs un-treated cultures (in words) ([2]; 1 week in culture): increase in the percentage | CD34+38- cell population with cytostatic agent ([2]; Donor # 3): 15% | Fold enrichment (CD34+38-) ([2]; Donor # 3): 1.7 | CD34+38- cell population with cytostatic agent ([2]; Donor # 4): 5% | Fold enrichment (CD34+38-) ([2]; Donor # 4): 10 | CD133+ cells, T(2 weeks), with colchicine [3, 4]: 5.4 × 10^3 | Total cells, T(2 weeks), with colchicine [3, 4]: 135 × 10^3 | Fold expansion of CD133+ cells ([3]; Exp. 1): (X 13.5) | CD133+ cells, T(2 weeks), with colchicine [3, 5]: 4.7 × 10^3 | Total cells, T(2 weeks), with colchicine [3, 5]: 68 × 10^3 | Fold expansion of CD133+ cells ([3]; Exp. 2): (X 23.5) | CD133+ cells, T(2 weeks), with colchicine [3, 6]: 4.1 × 10^3 | Total cells, T(2 weeks), with colchicine [3, 6]: 27 × 10^3 | Fold expansion of CD133+ cells ([3]; Exp. 3): (X 10.2)

Source: patent US20090298045A1, “Method For Selectively Expanding, Selecting And Enriching Stem/Progenitor Cell Populations” (Tel Hashomer-Medical Research, Infrastructure And Services …, priority 2004, published 2009)
